Measured values reported in ChEMBL document CHEMBL1150457, “-hydroxyamide derived aminodiols as potent inhibitors of hiv protease” (Bioorg Med Chem Lett, 1995).

Columns and labels:
[1] = target: T1, Human immunodeficiency virus type 1 protease (Human immunodeficiency virus 1, UniProt Q72874); experiment: In vitro inhibition of HIV-1 protease.
[2] = tested on: Human immunodeficiency virus 1; experiment: Concentration required to inhibit HIV-1 virus replication by 50% as determined by XTT; assay type: functional; details: read-out: ED50 (the source's name)
[3] = target: T1, Human immunodeficiency virus type 1 protease; experiment: Inhibition constant against HIV protease was determined

Structure (SMILES)	IC50 [1]	EC50 ([2]; Human immunodeficiency virus 1)	EC50 [2]	Ki [3]
CC(C)(C)OC(=O)N[C@@H](Cc1ccccc1)[C@H](O)CNC[C@@H](O)[C@H](Cc1ccccc1)NC(=O)C1(O)COCC1(C)C (stereo in doubt; form 2)	220 nM	230 nM	–	–
CC(C)(C)OC(=O)N[C@@H](Cc1ccccc1)[C@H](O)CNC[C@@H](O)[C@H](Cc1ccccc1)NC(=O)[C@@H](O)C(C)(C)C	1200 nM	–	–	–
CC(C)(C)OC(=O)N[C@@H](Cc1ccccc1)[C@H](O)CNC[C@@H](O)[C@H](Cc1ccccc1)NC(=O)[C@@](C)(O)c1ccccc1	260 nM	1350 nM	–	–
CC(C)(C)OC(=O)N[C@@H](Cc1ccccc1)[C@H](O)CNC[C@@H](O)[C@H](Cc1ccccc1)NC(=O)C(C)(O)C(C)(C)CO (stereo in doubt; form 1)	120 nM	–	110 nM	–
CC(C)(C)OC(=O)N[C@@H](Cc1ccccc1)[C@H](O)CNC[C@@H](O)[C@H](Cc1ccccc1)NC(=O)[C@@H](O)c1ccccc1	> 10000 nM	–	–	–
CC(C)(C)OC(=O)N[C@@H](Cc1ccccc1)[C@H](O)CNC[C@@H](O)[C@H](Cc1ccccc1)NC(=O)[C@](C)(O)c1ccccc1	6500 nM	–	–	–
CC(C)(C)OC(=O)N[C@@H](Cc1ccccc1)[C@H](O)CNC[C@@H](O)[C@H](Cc1ccccc1)NC(=O)C(O)C(F)(F)F (stereo in doubt)	2200 nM	–	–	–
CC(C)(C)OC(=O)N[C@@H](Cc1ccccc1)[C@H](O)CNC[C@@H](O)[C@H](Cc1ccccc1)NC(=O)[C@@](C)(O)C(C)(C)C	40 nM	60 nM	–	24 nM
CC(C)(C)OC(=O)N[C@@H](Cc1ccccc1)[C@H](O)CNC[C@@H](O)[C@H](Cc1ccccc1)NC(=O)C(C)(C)O	450 nM	970 nM	–	–
CC(C)(C)OC(=O)N[C@@H](Cc1ccccc1)[C@H](O)CNC[C@@H](O)[C@H](Cc1ccccc1)NC(=O)C(O)C(F)(F)F (single isomer, unassigned; isomer A)	40 nM	60 nM	–	–
CC(C)(C)OC(=O)N[C@@H](Cc1ccccc1)[C@H](O)CNC[C@@H](O)[C@H](Cc1ccccc1)NC(=O)[C@H](O)c1ccccc1	320 nM	650 nM	–	–
CC(C)(C)OC(=O)N[C@@H](Cc1ccccc1)[C@H](O)CNC[C@@H](O)[C@H](Cc1ccccc1)NC(=O)C(O)(CO)C(C)(C)C (single isomer, unassigned; isomer B)	10000 nM	–	–	–
CC(C)(C)OC(=O)N[C@@H](Cc1ccccc1)[C@H](O)CNC[C@@H](O)[C@H](Cc1ccccc1)NC(=O)C1(O)CCCC1(C)C (stereo in doubt)	15 nM	–	30 nM	–
CC(C)(C)OC(=O)N[C@@H](Cc1ccccc1)[C@H](O)CNC[C@@H](O)[C@H](Cc1ccccc1)NC(=O)C1(O)CCCC1(C)C (single isomer, unassigned; isomer B)	250 nM	–	375 nM	–
CC(C)(C)OC(=O)N[C@@H](Cc1ccccc1)[C@H](O)CNC[C@@H](O)[C@H](Cc1ccccc1)NC(=O)C(O)(CO)C(C)(C)C (stereo in doubt)	60 nM	25 nM	–	–
CC(C)(C)OC(=O)N[C@@H](Cc1ccccc1)[C@H](O)CNC[C@@H](O)[C@H](Cc1ccccc1)NC(=O)[C@H](O)C(C)(C)C	50 nM	55 nM	–	–
CC(C)(C)OC(=O)N[C@@H](Cc1ccccc1)[C@H](O)CNC[C@@H](O)[C@H](Cc1ccccc1)NC(=O)C1(O)COCC1(C)C (stereo in doubt; form 1)	3500 nM	–	–	–
CC(C)(C)OC(=O)N[C@@H](Cc1ccccc1)[C@H](O)CNC[C@@H](O)[C@H](Cc1ccccc1)NC(=O)OC(C)(C)C	–	80 nM	–	100 nM
CC(C)(C)CC(=O)N[C@@H](Cc1ccccc1)[C@H](O)CNC[C@@H](O)[C@H](Cc1ccccc1)NC(=O)OC(C)(C)C	–	1200 nM	–	–
CC(C)(C)OC(=O)N[C@@H](Cc1ccccc1)[C@H](O)CNC[C@@H](O)[C@H](Cc1ccccc1)NC(=O)[C@](C)(O)C(C)(C)C	900 nM	1380 nM	–	–
CC(C)(C)OC(=O)N[C@@H](Cc1ccccc1)[C@H](O)CNC[C@@H](O)[C@H](Cc1ccccc1)NC(=O)C(C)(O)C(C)(C)CO (stereo in doubt; form 2)	130 nM	160 nM	–	–
